The subject of one test is BT474 cells. Put plainly: MTT cell viability, BT474 cells. The test is classed as cell-based, human. As to conditions: for cell viability, increasing concentrations: 72 h, concentration-related (FIG. 2); for cell viability at low concentrations: <1 μM, alone or 1:1 combination, 72 h (FIG. 3). The procedure:
(§1) The effect of THC and CBD, alone and in combination, on the viability of two different Her2-positive human breast cancer cell lines: SkBr3 and BT474 were tested.
(§2) Briefly, cells were incubated in RPMI (SkBr3) or DMEM (BT474) supplemented with 10% foetal bovine serum. After 12 hours of serum starvation, the cells were challenged with different concentrations of THC or CBD (or the corresponding vehicle, DMSO) for 72 h. Cell viability was then determined by the colorimetric MTT test.
The analysis of the combined drug effect was performed with the CalcuSyn v2.0 software. To determine whether the combination of THC and CBD was additive or synergistic, we calculated different combination indexes (Cis) using the algorithm by Chou and Talalay with the CalcuSyn v2.0 software.
For each ED, the software (i) plots a line connecting the concentrations of THC and CBD that produce that particular effect when administered as single agents, and (ii) generates a point that indicates the concentration of THC and CBD, applied as a combination, required to produce such effect. If the line is straight, this means that the two compounds are producing a simple additive effect and the point should appear within it.
The effect of THC and CBD, alone and in combination at different ratios, on the viability of BT474 cells was examined.
Cells were incubated in DMEM supplemented with 10% foetal bovine serum. After 12 hours of serum starvation, cells were challenged for 72 h as described in Table 3.1. Cell viability was then determined by the colorimetric MTT test.

The test system of another test is SkBr3 cells. Description: MTT cell viability, SkBr3 cells. The test is classed as cell-based, human. As to conditions: for cell viability, increasing concentrations: 72 h, concentration-related (FIG. 2). The procedure: as §1, §2
The subject of test [1] is 231-Met (highly metastatic 231-Her2-derived cell line). Put plainly: MTT cell viability, highly metastatic 231-Her2 cells. The test is classed as cell-based, human. As to conditions: for cell viability, increasing concentrations: 72 h (FIG. 9); for IC50 values, cell viability: 72 h, THC compared with CBD (FIG. 9). As for the experimental part: The effect of THC and CBD on the viability of a series of Her2-positive human breast cancer cell lines: MDA-MB-231 cells that ectopically overexpress Her2 (231-Her2), a highly metastatic version of 231-Her2 (231-Met), and three different trastuzumab-resistant 231-Her2-derived cell lines (TrR1, TrR2 and TrR3).
Cells were incubated in DMEM supplemented with 10% foetal bovine serum. After 12 hours of serum starvation, cells were challenged with different concentrations of THC or CBD (or the corresponding vehicle, DMSO) for 72 h. Cell viability was then determined by the colorimetric MTT test.
(§3) Cells were incubated in the presence of cannabinoids for 48 h and cell viability was assessed by the MTT colorimetric test.

The subject of the next test is MDA-MB-231 cells. Put plainly: MTT cell viability, MDA-MB-231 cells. The class given is cell-based, human. Conditions: 48 h (FIG. 11). As for the experimental part: as §3
In test [2] the test system is MDA-MB-231 cells stably overexpressing Her2 (231-Her2). Description: MTT cell viability, 231-Her2 cells. The test is classed as cell-based, human. As to conditions: 48 h (FIGS. 13 and 14). As for the experimental part: as §3
The test system of another test is id-1 gene expression. As to conditions: MDA-MB231 and MDA-MB436 cell lines; cited from earlier work.

With `C=C(C)[C@@H]1CCC(C)=C[C@H]1c1c(O)cc(CCCCC)cc1O` [CBD, cannabidiol], the “cell viability, increasing concentrations” value is on record as “reduced their viability” in the test on BT474 cells, “reduced their viability” in the test with SkBr3 cells and “decreased its viability” in test [1]. The “cell viability at low concentrations” value in the test with BT474 cells is recorded as “no effect on cell viability”. In addition, the “IC50 values, cell viability” value in test [1] is recorded as “virtually identical”. In addition, in the test with MDA-MB-231 cells, the “cell viability, single agents” value was “sensitive”. Moreover, in test [2], the “cell viability, single agents, increasing concentrations” value was “decreases”. In the test with id-1 gene expression, the id-1 gene expression result was “inhibit”.
Regarding `CCCCCc1cc(O)c2c(c1)OC(C)(C)[C@@H]1CCC(C)=C[C@@H]21` [THC, tetrahydrocannabinol], the “cell viability upon exposure to THC” value in the test on BT474 cells (6 μM THC, 72 h (FIG. 1C)) is reported as “decreases”; in the test on SkBr3 cells (3 μM THC, 72 h (FIG. 1C)), “decreases”. The “cell viability, increasing concentrations” value is recorded as “reduced their viability” in the test with BT474 cells, “reduced their viability” in the test on SkBr3 cells and “decreased its viability” in test [1]. Further, the “cell viability at low concentrations” value with BT474 cells is “no effect on cell viability”. For the same molecule, the “IC50 values, cell viability” value in test [1] is “virtually identical”. Besides, in the test with MDA-MB-231 cells, the “cell viability, single agents” value is “sensitive”. Besides, the “cell viability, single agents, increasing concentrations” value in test [2] is reported as “decreases”.
For the molecule SR144528, the “effect of CB2 antagonist on THC-induced decrease of viability” value in the test on BT474 cells (6 μM THC with 2 μM SR144528, 72 h (FIG. 1C)) is “prevented”; in the test with SkBr3 cells (3 μM THC with 2 μM SR144528, 72 h (FIG. 1C)) it was “prevented”.

Source of the values: patent publication US20140314757A1, “PHYTOCANNABINOIDS FOR USE IN THE TREATMENT OF BREAST CANCER” (priority 2011, published 2014).
